Experimental data taken from PubChem BioAssay (NCI).
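Compound exposure: 48 hours, 5 concentrations, 96-well plates. TGI: concentration producing complete growth inhibition.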

Assays:
Test in all cases: NCI tumour cell line growth inhibition, 48 h
MDA-N = system: MDA-N
NCI-H460 lung = system: NCI-H460 lung
UO-31 renal = system: UO-31 renal
T-47D breast = system: T-47D breast
ACHN renal = system: ACHN renal
786-0 renal = system: 786-0 renal
SNB-19 CNS = system: SNB-19 CNS
UACC-62 melanoma = system: UACC-62 melanoma
U251 CNS = system: U251 CNS
SF-295 CNS = system: SF-295 CNS
OVCAR-3 ovarian = system: OVCAR-3 ovarian
PC-3 prostate = system: PC-3 prostate
HOP-62 NSCLC = system: HOP-62 NSCLC
CCRF-CEM leukemia = system: CCRF-CEM leukemia
NCI/ADR-RES ovarian = system: NCI/ADR-RES ovarian
OVCAR-5 ovarian = system: OVCAR-5 ovarian
SF-268 CNS = system: SF-268 CNS
MDA-MB-435 = system: MDA-MB-435
IGROV1 ovarian = system: IGROV1 ovarian
NCI-H23 lung = system: NCI-H23 lung
MCF7 breast = system: MCF7 breast
HCT-116 colon = system: HCT-116 colon
SR leukemia = system: SR leukemia
M14 melanoma = system: M14 melanoma
NCI-H522 lung = system: NCI-H522 lung
K-562 leukemia = system: K-562 leukemia
HT29 colon = system: HT29 colon
LOX IMVI melanoma = system: LOX IMVI melanoma
CAKI-1 renal = system: CAKI-1 renal
SNB-75 CNS = system: SNB-75 CNS
HCC-2998 colon = system: HCC-2998 colon
SK-MEL-28 melanoma = system: SK-MEL-28 melanoma
OVCAR-4 ovarian = system: OVCAR-4 ovarian
DU-145 prostate = system: DU-145 prostate
EKVX NSCLC = system: EKVX NSCLC
MALME-3M melanoma = system: MALME-3M melanoma
SK-OV-3 ovarian = system: SK-OV-3 ovarian
HOP-92 NSCLC = system: HOP-92 NSCLC
RXF 393 renal = system: RXF 393 renal
SW-620 colon = system: SW-620 colon
KM12 colon = system: KM12 colon
SK-MEL-5 melanoma = system: SK-MEL-5 melanoma
SN12C renal = system: SN12C renal
HL-60(TB) leukemia = system: HL-60(TB) leukemia
RPMI-8226 leukemia = system: RPMI-8226 leukemia
A549 NSCLC = system: A549 NSCLC
SF-539 CNS = system: SF-539 CNS
TK-10 renal = system: TK-10 renal
COLO 205 colon = system: COLO 205 colon
MDA-MB-231 breast = system: MDA-MB-231 breast
NCI-H226 lung = system: NCI-H226 lung
A498 renal = system: A498 renal
MOLT-4 leukemia = system: MOLT-4 leukemia
UACC-257 melanoma = system: UACC-257 melanoma
HS 578T breast = system: HS 578T breast
HCT-15 colon = system: HCT-15 colon
OVCAR-8 ovarian = system: OVCAR-8 ovarian
SK-MEL-2 melanoma = system: SK-MEL-2 melanoma

`CCCCCCCc1c(Cl)nc(Cl)nc1Cl` showed a TGI (MDA-N) of 13.1 µM, a TGI (NCI-H460 lung) of 27.8 µM and a TGI (UO-31 renal) of 17.3 µM. The TGI (T-47D breast) was 30.4 µM, the TGI (ACHN renal) was 20.8 µM and the TGI (786-0 renal) was 10.2 µM. For the same molecule, the TGI (SNB-19 CNS) was 24.4 µM, the TGI (UACC-62 melanoma) was 20.5 µM and the TGI (U251 CNS) was 9.89 µM. For the same molecule, the TGI (SF-295 CNS) was 31.6 µM, the TGI (OVCAR-3 ovarian) was 17.1 µM and the TGI (PC-3 prostate) was 23.7 µM. The TGI (HOP-62 NSCLC) was 33.2 µM, the TGI (CCRF-CEM leukemia) was 2.66 µM and the TGI (NCI/ADR-RES ovarian) was 13.3 µM. The TGI (OVCAR-5 ovarian) was 21 µM, the TGI (SF-268 CNS) was 16.3 µM and the TGI (MDA-MB-435) was 5.94 µM. It also gave a TGI (IGROV1 ovarian) of 4.83 µM, a TGI (NCI-H23 lung) of 10.2 µM and a TGI (MCF7 breast) of 26.9 µM. For the same molecule, the TGI (HCT-116 colon) was 9.2 µM, the TGI (SR leukemia) was 3.14 µM and the TGI (M14 melanoma) was 4.71 µM. For the same molecule, the TGI (NCI-H522 lung) was 3.85 µM, the TGI (K-562 leukemia) was 4.16 µM and the TGI (HT29 colon) was 13.6 µM. For the same molecule, the TGI (LOX IMVI melanoma) was 4.49 µM, the TGI (CAKI-1 renal) was 5.36 µM and the TGI (SNB-75 CNS) was 28.9 µM. It also gave a TGI (HCC-2998 colon) of 17 µM, a TGI (SK-MEL-28 melanoma) of 18.6 µM and a TGI (OVCAR-4 ovarian) of 9.87 µM. The TGI (DU-145 prostate) was 27.4 µM, the TGI (EKVX NSCLC) was 22.2 µM and the TGI (MALME-3M melanoma) was 8.83 µM. It also gave a TGI (SK-OV-3 ovarian) of 18.5 µM, a TGI (HOP-92 NSCLC) of 11.4 µM and a TGI (RXF 393 renal) of 6.26 µM. It also gave a TGI (SW-620 colon) of 6.21 µM, a TGI (KM12 colon) of 25 µM and a TGI (SK-MEL-5 melanoma) of 14.8 µM. The TGI (SN12C renal) was 4.65 µM, the TGI (HL-60(TB) leukemia) was 5.34 µM and the TGI (RPMI-8226 leukemia) was 8.85 µM. The TGI (A549 NSCLC) was 32.8 µM, the TGI (SF-539 CNS) was 23.5 µM and the TGI (TK-10 renal) was 26.7 µM. For the same molecule, the TGI (COLO 205 colon) was 17.9 µM, the TGI (MDA-MB-231 breast) was 9.54 µM and the TGI (NCI-H226 lung) was 4.68 µM. It also gave a TGI (A498 renal) of 34.6 µM, a TGI (MOLT-4 leukemia) of 3.51 µM and a TGI (UACC-257 melanoma) of 23.3 µM. It also gave a TGI (HS 578T breast) of 33.2 µM, a TGI (HCT-15 colon) of 10.1 µM and a TGI (OVCAR-8 ovarian) of 5.18 µM.

For `O=c1ssc2ncccc12`, the TGI (MDA-N) was 34.9 µM, the TGI (NCI-H460 lung) was 52.3 µM and the TGI (UO-31 renal) was 32 µM. It also gave a TGI (T-47D breast) of over 100 µM, a TGI (ACHN renal) of 31.9 µM and a TGI (786-0 renal) of 38.2 µM. It also gave a TGI (SNB-19 CNS) of over 100 µM, a TGI (UACC-62 melanoma) of 24 µM and a TGI (U251 CNS) of 33.1 µM. It also gave a TGI (SF-295 CNS) of over 100 µM, a TGI (OVCAR-3 ovarian) of 35.6 µM and a TGI (PC-3 prostate) of over 100 µM. For the same molecule, the TGI (HOP-62 NSCLC) was 45.5 µM, the TGI (CCRF-CEM leukemia) was over 100 µM and the TGI (NCI/ADR-RES ovarian) was over 100 µM. The TGI (OVCAR-5 ovarian) was 55.1 µM, the TGI (SF-268 CNS) was 69.6 µM and the TGI (MDA-MB-435) was 31.5 µM. For the same molecule, the TGI (NCI-H23 lung) was over 100 µM, the TGI (MCF7 breast) was 33 µM and the TGI (HCT-116 colon) was 40.1 µM. For the same molecule, the TGI (SR leukemia) was over 100 µM, the TGI (M14 melanoma) was 41.8 µM and the TGI (NCI-H522 lung) was 28.9 µM. The TGI (K-562 leukemia) was over 100 µM, the TGI (HT29 colon) was 53.6 µM and the TGI (LOX IMVI melanoma) was 35 µM. For the same molecule, the TGI (CAKI-1 renal) was over 100 µM, the TGI (SNB-75 CNS) was 34.9 µM and the TGI (HCC-2998 colon) was 39.3 µM. It also gave a TGI (SK-MEL-28 melanoma) of 42.5 µM, a TGI (DU-145 prostate) of over 100 µM and a TGI (EKVX NSCLC) of over 100 µM. It also gave a TGI (MALME-3M melanoma) of 50.2 µM, a TGI (SK-OV-3 ovarian) of over 100 µM and a TGI (HOP-92 NSCLC) of over 100 µM. It also gave a TGI (RXF 393 renal) of 37.4 µM, a TGI (SW-620 colon) of 43.6 µM and a TGI (KM12 colon) of 48 µM. For the same molecule, the TGI (SK-MEL-5 melanoma) was 25.9 µM, the TGI (SN12C renal) was 28.8 µM and the TGI (HL-60(TB) leukemia) was over 100 µM. For the same molecule, the TGI (RPMI-8226 leukemia) was 40.5 µM, the TGI (A549 NSCLC) was 39.7 µM and the TGI (SF-539 CNS) was 70.5 µM. The TGI (SK-MEL-2 melanoma) was 27.8 µM, the TGI (TK-10 renal) was over 100 µM and the TGI (COLO 205 colon) was 34.8 µM. The TGI (MDA-MB-231 breast) was 26.2 µM, the TGI (NCI-H226 lung) was 7.65 µM and the TGI (A498 renal) was over 100 µM. For the same molecule, the TGI (MOLT-4 leukemia) was over 100 µM, the TGI (UACC-257 melanoma) was 50.4 µM and the TGI (HS 578T breast) was over 100 µM. For the same molecule, the TGI (HCT-15 colon) was 27.4 µM.
